Source: patent US4508663A, “Process for preparing thiosulfenamide derivatives of N-phosphonomethylglycinonitriles” (Monsanto Company, priority 1983, dated 1985)

Legend:
Experiment in all cases: post-emergence herbicidal activity, greenhouse
Format in all cases: in vivo
[1] = system: Barnyardgrass
Text: (§1) A good grade of top soil is placed in aluminum pans having holes in the bottom and compacted to a depth of 0.95 to 1.27 cm. from the top of the pan. A predetermined number of seeds of each of several dicotyledonous and monocotyledonous annual plant species and/or vegetative propagules for the perennial plant species are placed on the soil and pressed into the soil surface. The seeds and/or vegetative propagules are covered with soil and leveled. The pans are then placed on a sand bench in the greenhouse and watered from below as needed. After the plants reach the desired age (two to three weeks), each pan except for the control pans is removed individually to a spraying chamber and sprayed by means of an atomizer operating at a positive air pressure of approximately 1.46 kg/cm^2 absolute. The atomizer contains 6 ml. of a solution or suspension of the chemical. In that 6 ml., is an amount of a cyclohexanone emulsifying agent mixture to give a spray solution or suspension which contains about 0.4% by weight of the emulsifier. The spray solution or suspension contains a sufficient amount of the candidate chemical in order to give application rates corresponding to those set forth in the tables. The spray solution is prepared by taking an aliquot of a 1.0% by weight stock solution or suspension of the candidate chemical in an organic solvent such as acetone or tetrahydrofuran or in water. The emulsifying agent employed is a mixture comprising 35 weight percent butylamine dodecylbenzene sulfonate and 65 weight percent of a tall oil ethylene oxide condensate having about 11 moles of ethylene oxide per mole of tall oil. The pans are returned to the greenhouse and watered as before and the injury to the plants as compared to the control is observed at approximately two and four weeks as indicated in the tables under WAT and the results recorded. In some instances, the two-week observations are omitted.
(§2) The post-emergence herbicidal activity index used in Table I is as follows: […]

[2] = system: Cocklebur
Text: as §1, §2

[3] = system: Crabgrass; details: Table II, 2 WAT
Text: as §1, §2

[4] = system: Downy Brome
Text: as §1, §2

[5] = system: Hemp Sesbania; details: Table II, 2 WAT
Text: as §1, §2

[6] = system: Johnsongrass; details: Table I
Text: as §1, §2

[7] = system: Lambsquarters
Text: as §1, §2

[8] = system: Morningglory
Text: as §1, §2

[9] = system: Panicum Spp; details: Table II, 2 WAT
Text: as §1, §2

[10] = system: Quackgrass; details: Table I
Text: as §1, §2

[11] = system: Rice; details: Table II, 2 WAT
Text: as §1, §2

[12] = system: Smartweed
Text: as §1, §2

[13] = system: Sorghum; details: Table II, 2 WAT
Text: as §1, §2

[14] = system: Soybean; details: Table II, 2 WAT
Text: as §1, §2

[15] = system: Sugar Beet; details: Table II, 2 WAT
Text: as §1, §2

[16] = system: Velvetleaf
Text: as §1, §2

[17] = system: Wheat; details: Table II, 2 WAT
Text: as §1, §2

[18] = system: Wild Buckwheat; details: Table II, 2 WAT
Text: as §1, §2

[19] = system: Yellow Nutsedge; details: Table I
Text: as §1, §2

N#CCN(CP(=O)(Oc1ccccc1)Oc1ccccc1)SSc1ccc2ccccc2c1 [IX, Phosphonic acid, [[(cyanomethyl)(2-naphthalenyldithio)amino]methyl]-, diphenyl ester]
post-emergence herbicidal activity index ([1]; Table I, 2 WAT, 5.6 kg/h): 0 (0-24% control)
post-emergence herbicidal activity index ([1]; Table I, 4 WAT, 11.2 kg/h): 1 (25-49% control)
post-emergence herbicidal activity index ([1]; Table II, 2 WAT, 0.28 kg/h): 0 (0-24% control)
post-emergence herbicidal activity index ([1]; Table II, 2 WAT, 1.12 kg/h): 0 (0-24% control)
post-emergence herbicidal activity index ([1]; Table II, 2 WAT, 5.6 kg/h): 1 (25-49% control)
post-emergence herbicidal activity index ([2]; Table I, 2 WAT, 5.6 kg/h): 0 (0-24% control)
post-emergence herbicidal activity index ([2]; Table I, 4 WAT, 11.2 kg/h): 1 (25-49% control)
post-emergence herbicidal activity index ([2]; Table II, 2 WAT, 0.28 kg/h): 0 (0-24% control)
post-emergence herbicidal activity index ([2]; Table II, 2 WAT, 1.12 kg/h): 0 (0-24% control)
post-emergence herbicidal activity index ([2]; Table II, 2 WAT, 5.6 kg/h): 1 (25-49% control)
post-emergence herbicidal activity index ([3]; 0.28 kg/h): 0 (0-24% control)
post-emergence herbicidal activity index ([3]; 1.12 kg/h): 0 (0-24% control)
post-emergence herbicidal activity index ([3]; 5.6 kg/h): 2 (50-74% control)
post-emergence herbicidal activity index ([4]; Table I, 2 WAT, 5.6 kg/h): 0 (0-24% control)
post-emergence herbicidal activity index ([4]; Table I, 4 WAT, 11.2 kg/h): 0 (0-24% control)
post-emergence herbicidal activity index ([4]; Table II, 2 WAT, 0.28 kg/h): 0 (0-24% control)
post-emergence herbicidal activity index ([4]; Table II, 2 WAT, 1.12 kg/h): 0 (0-24% control)
post-emergence herbicidal activity index ([4]; Table II, 2 WAT, 5.6 kg/h): 0 (0-24% control)
post-emergence herbicidal activity index ([5]; 0.28 kg/h): 0 (0-24% control)
post-emergence herbicidal activity index ([5]; 1.12 kg/h): 0 (0-24% control)
post-emergence herbicidal activity index ([5]; 5.6 kg/h): 1 (25-49% control)
post-emergence herbicidal activity index ([6]; 2 WAT, 5.6 kg/h): 1 (25-49% control)
post-emergence herbicidal activity index ([6]; 4 WAT, 11.2 kg/h): 1 (25-49% control)
post-emergence herbicidal activity index ([7]; Table I, 2 WAT, 5.6 kg/h): 1 (25-49% control)
post-emergence herbicidal activity index ([7]; Table I, 4 WAT, 11.2 kg/h): 3 (75-99% control)
post-emergence herbicidal activity index ([7]; Table II, 2 WAT, 0.28 kg/h): 0 (0-24% control)
post-emergence herbicidal activity index ([7]; Table II, 2 WAT, 1.12 kg/h): 0 (0-24% control)
post-emergence herbicidal activity index ([7]; Table II, 2 WAT, 5.6 kg/h): 3 (75-99% control)
post-emergence herbicidal activity index ([8]; Table I, 2 WAT, 5.6 kg/h): 0 (0-24% control)
post-emergence herbicidal activity index ([8]; Table I, 4 WAT, 11.2 kg/h): 0 (0-24% control)
post-emergence herbicidal activity index ([8]; Table II, 2 WAT, 0.28 kg/h): 0 (0-24% control)
post-emergence herbicidal activity index ([8]; Table II, 2 WAT, 1.12 kg/h): 0 (0-24% control)
post-emergence herbicidal activity index ([8]; Table II, 2 WAT, 5.6 kg/h): 1 (25-49% control)
post-emergence herbicidal activity index ([9]; 0.28 kg/h): 0 (0-24% control)
post-emergence herbicidal activity index ([9]; 1.12 kg/h): 0 (0-24% control)
post-emergence herbicidal activity index ([9]; 5.6 kg/h): 0 (0-24% control)
post-emergence herbicidal activity index ([10]; 2 WAT, 5.6 kg/h): 0 (0-24% control)
post-emergence herbicidal activity index ([10]; 4 WAT, 11.2 kg/h): 1 (25-49% control)
post-emergence herbicidal activity index ([11]; 0.28 kg/h): 0 (0-24% control)
post-emergence herbicidal activity index ([11]; 1.12 kg/h): 0 (0-24% control)
post-emergence herbicidal activity index ([11]; 5.6 kg/h): 0 (0-24% control)
post-emergence herbicidal activity index ([12]; Table I, 2 WAT, 5.6 kg/h): 0 (0-24% control)
post-emergence herbicidal activity index ([12]; Table I, 4 WAT, 11.2 kg/h): 3 (75-99% control)
post-emergence herbicidal activity index ([12]; Table II, 2 WAT, 0.28 kg/h): 0 (0-24% control)
post-emergence herbicidal activity index ([12]; Table II, 2 WAT, 1.12 kg/h): 0 (0-24% control)
post-emergence herbicidal activity index ([12]; Table II, 2 WAT, 5.6 kg/h): 1 (25-49% control)
post-emergence herbicidal activity index ([13]; 0.28 kg/h): 0 (0-24% control)
post-emergence herbicidal activity index ([13]; 1.12 kg/h): 0 (0-24% control)
post-emergence herbicidal activity index ([13]; 5.6 kg/h): 1 (25-49% control)
post-emergence herbicidal activity index ([14]; 0.28 kg/h): 0 (0-24% control)
post-emergence herbicidal activity index ([14]; 1.12 kg/h): 0 (0-24% control)
post-emergence herbicidal activity index ([14]; 5.6 kg/h): 0 (0-24% control)
post-emergence herbicidal activity index ([15]; 0.28 kg/h): 0 (0-24% control)
post-emergence herbicidal activity index ([15]; 1.12 kg/h): 0 (0-24% control)
post-emergence herbicidal activity index ([15]; 5.6 kg/h): 0 (0-24% control)
post-emergence herbicidal activity index ([16]; Table I, 2 WAT, 5.6 kg/h): 1 (25-49% control)
post-emergence herbicidal activity index ([16]; Table I, 4 WAT, 11.2 kg/h): 1 (25-49% control)
post-emergence herbicidal activity index ([16]; Table II, 2 WAT, 0.28 kg/h): 0 (0-24% control)
post-emergence herbicidal activity index ([16]; Table II, 2 WAT, 1.12 kg/h): 0 (0-24% control)
post-emergence herbicidal activity index ([16]; Table II, 2 WAT, 5.6 kg/h): 0 (0-24% control)
post-emergence herbicidal activity index ([17]; 0.28 kg/h): 0 (0-24% control)
post-emergence herbicidal activity index ([17]; 1.12 kg/h): 0 (0-24% control)
post-emergence herbicidal activity index ([17]; 5.6 kg/h): 1 (25-49% control)
post-emergence herbicidal activity index ([18]; 0.28 kg/h): 0 (0-24% control)
post-emergence herbicidal activity index ([18]; 1.12 kg/h): 0 (0-24% control)
post-emergence herbicidal activity index ([18]; 5.6 kg/h): 1 (25-49% control)
post-emergence herbicidal activity index ([19]; 2 WAT, 5.6 kg/h): 0 (0-24% control)
post-emergence herbicidal activity index ([19]; 4 WAT, 11.2 kg/h): 0 (0-24% control)
